From US20100190719A1, “PEPTIDES AS ANTIMICROBIAL AGENTS TOWARDS CAMPYLOBACTER SPP” (priority 2007, published 2010)

How the values were obtained:
C. jejuni strain C338 [1] = assay: microdilution susceptibility test, inhibition of growth of C. jejuni in vitro; assay type: cell-based, Campylobacter jejuni; conditions: for % inhibition of growth: C. jejuni strain C338, phage-displayed peptide
Procedure: Representative affinity-selected phage peptides were tested for their ability to inhibit the growth of C. jejuni strains in vitro. Each phage clone was amplified by E. coli infection and twice purified by PEG precipitation and resuspended in TBS buffer (pH 7.5). Phage concentrations were calculated as […] using the ultraviolet (UV) absorbance measurements on a spectrophotometer (Smith & Scott, 1993). […] In brief: each of the C. jejuni strains was resuspended to an OD595 of 0.2 in Nutrient Broth and then diluted to 10^4-10^5 CFU/mL in Nutrient Broth containing Campylobacter growth supplement. […] A microaerophilic environment was provided by GasPak E2 Campy Pouches (BD Biosciences). After 24-48 h at 37° C. without shaking, the optical densities of the bacterial cultures were measured at OD595 nm in a plate reader (Victor2, Perkin Elmer).
(§1) The number of viable bacteria in the 96 well plates was determined by performing colony counts on the diluted inoculum and plating onto blood agar plates. Colony counts on blood agar plates were also used to determine the initial inoculum of bacteria used in the assay. A Gram Stain Kit was used to check the morphology of C. jejuni after incubation with the phage peptides.

C. jejuni strain C338 [2] = assay: morphology of C. jejuni after incubation with phage peptides (Gram stain); assay type: cell-based, Campylobacter jejuni; conditions: normal morphology is spiral-shaped
Procedure: The morphology has changed to thread-shaped. • B. Strain C338 incubated with unselected phage library showing the normal spiral-shaped morphology • C.
as §1

Sequence | % inhibition of growth (C. jejuni strain C338 [1]) [%] | morphology of C. jejuni after incubation with phage-displayed peptide (C. jejuni strain C338 [2]) | also measured
FLIDSPLASIGPTSM (f88-4/15-mer peptide phage-display library) [CP3/3] | 99.3 | – | –
GRFLIRVTSSPLGPD (f88-4/15-mer peptide phage-display library) [CP3/1] | 96.7 | thread-shaped | inhibition of growth of C. jejuni (C. jejuni strain C338 [1]; initial bacterial inoculum 2.8×10^4 CFU/mL): 97%; inhibition of growth of C. jejuni (C. jejuni strain C338 [1]; initial bacterial inoculum 2.8×10^4 CFU/mL as printed (second value for CP3/1)): 89%
TCNLSDYTLPRARVL (f88-4/15-mer peptide phage-display library) [BT3/4] | 60 | – | inhibition of growth of C. jejuni in vitro (in words) (C. jejuni strain C338 [1]; bacterial concentration of 1×10^4 CFU/mL): inhibited the growth
TGSGLYLHQMVYLYQ (f88-4/15-mer peptide phage-display library) [CP3/2] | 92 | – | inhibition of growth of C. jejuni (C. jejuni strain C338 [1]; bacterial inoculum 1.6×10^5 CFU/mL): 87%
VPESIHKASLVCYRF (f88-4/15-mer peptide phage-display library) [BP3/5] | – | coccoid shaped | –
